Each structure is given as a SMILES string. Where a name gives a salt, the structure may show the parent alone.

In general, melting point refers to the temperature of the solid-liquid transition. One may read the IC50 as the concentration at which inhibition is half-maximal.

Test system in the first data set: not given
Experiment: not given
Consider `Cc1ccccc1-c1ccc(C(=O)N[C@@H](CCO)C(C)(C)C)nc1-c1ccc(Cl)c(OCCCN(C)C)c1` (as salt: hydrochloride), for which the melting point was 93 °C. Same read-out and setting: under `COC(=O)C1(NC(=O)c2ccc(-c3ncc(Cl)cc3Cl)c(-c3ccc(Cl)c(OCCCN(C)C)c3)n2)CCCCC1` (as salt: hydrochloride) [Compound 1, methyl 1-{[(3,5-dichloro-2′-{4-chloro-3-[3-(dimethylamino)propoxy]phenyl}-2,3′-bipyridin-6′-yl)carbonyl]amino}cyclohexanecarboxylate] stands 168 °C; under `COC(=O)C1(NC(=O)c2ccc(-c3ccc(O)cc3C)c(-c3ccc(Cl)c(OCCCN(C)C)c3)n2)CCCCC1` (as salt: hydrochloride) [Compound 2, methyl 1-({[6-{4-chloro-3-[3-(dimethylamino)propoxy]phenyl}-5-(4-hydroxy-2-methylphenyl)pyridin-2-yl]carbonyl}amino)cyclohexanecarboxylate], 270 °C. Still for that read-out and setting: in the case of `COC(=O)C1(NC(=O)c2ccc(-c3ccccc3C)c(-c3ccc(Cl)c(OCCCN(C)C)c3)n2)CCCCC1` (as salt: hydrochloride) [Compound 4, methyl 1-({[6-{4-chloro-3-[3-(dimethylamino)propoxy]phenyl}-5-(2-methylphenyl)pyridin-2-yl]carbonyl}amino)cyclohexanecarboxylate] it was 115 °C; in that of `COC(=O)C1(NC(=O)c2ccc(-c3ncc(C)cc3Cl)c(-c3ccc(Cl)c(OCCCN(C)C)c3)n2)CCCCC1` (as salt: hydrochloride) [Compound 5, methyl 1-{[(3-chloro-2′-{4-chloro-3-[3-(dimethylamino)propoxy]phenyl}-5-methyl-2,3′-bipyridin-6′-yl)carbonyl]amino}cyclohexanecarboxylate], 152 °C. Still for that read-out and setting: under `COC(=O)C1(NC(=O)c2ccc(-c3cc(C4CC4)ccc3C)c(-c3ccc(Cl)c(OCCCN(C)C)c3)n2)CCCCC1` (as salt: hydrochloride) [Compound 7, methyl 1-({[6-{4-chloro-3-[3-(dimethylamino)propoxy]phenyl}-5-(5-cyclopropyl-2-methylphenyl)pyridin-2-yl]carbonyl}amino)cyclohexanecarboxylate] stands 114 °C; under `CCCOc1ccc(Cl)c(-c2ccc(C(=O)NC3(C(=O)OC)CCCCC3)nc2-c2ccc(Cl)c(OCCCN(C)C)c2)c1` (as salt: hydrochloride) [Compound 9, methyl 1-({[6-{4-chloro-3-[3-(dimethylamino)propoxy]phenyl}-5-(2-chloro-5-propoxyphenyl)pyridin-2-yl]carbonyl}amino)cyclohexanecarboxylate], 117 °C; under `COC(=O)C1(NC(=O)c2ccc(-c3cc4c(cc3C)OCO4)c(-c3ccc(Cl)c(OCCCN(C)C)c3)n2)CCCCC1` (as salt: hydrochloride) [Compound 11, methyl 1-({[6-{4-chloro-3-[3-(dimethylamino)propoxy]phenyl}-5-(6-methyl-1,3-benzodioxol-5-yl)pyridin-2-yl]carbonyl}amino)cyclohexanecarboxylate], 138 °C. `COC(=O)C1(NC(=O)c2ccc(-c3ncc(C)cc3C)c(-c3ccc(Cl)c(OCCCN(C)C)c3)n2)CCCCC1` (as salt: hydrochloride) [Compound 13, methyl 1-{[(2′-{4-chloro-3-[3-(dimethylamino)propoxy]phenyl}-3,5-dimethyl-2,3′-bipyridin-6′-yl)carbonyl]amino}cyclohexanecarboxylate] came in with a melting point of 176 °C.

The target in another data set is T1, human GPR14 receptor (Homo sapiens, UniProt Q9UKP6).
T1 sequence (Q9UKP6 1-389): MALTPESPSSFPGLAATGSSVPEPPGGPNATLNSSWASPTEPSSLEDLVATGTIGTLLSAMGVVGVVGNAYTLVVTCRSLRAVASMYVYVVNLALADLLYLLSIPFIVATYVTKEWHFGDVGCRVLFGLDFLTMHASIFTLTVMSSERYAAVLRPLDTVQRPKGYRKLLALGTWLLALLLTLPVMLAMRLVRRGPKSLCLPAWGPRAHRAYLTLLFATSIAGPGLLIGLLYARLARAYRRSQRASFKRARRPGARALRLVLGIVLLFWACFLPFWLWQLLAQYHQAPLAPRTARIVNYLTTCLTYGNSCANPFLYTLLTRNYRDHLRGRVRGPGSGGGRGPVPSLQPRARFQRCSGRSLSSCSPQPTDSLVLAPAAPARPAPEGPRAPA
The data set is described as follows: cell-based.
Method: GPR14 is a 7-domain transmembrane receptor coupled to Gq. Its activation with a specific ligand causes an increase in Ca^2+ in the cell via the PLC (phospholipase C), IP3 (inositol-1,4,5-triphosphate) DAG (diacylglycerol) route.
The increase in Ca^2+ in the cell is measured using a Fluo4AM permeating probe (monoexcitation, monoemission probe) which binds to the free Ca^2+ and emits at 520 nm. The free probe is nonfluorescent in the absence of Ca^2+.
Experiment Plan • 1) Seeding of the cells on D-1 (day-1) or D-2 • 2) Incorporation/charge (D0) of the probe (1 h) • 3) Addition of the products to the FlipR and measurement • 4) Addition of the ligand to the FlipR and measurement in the presence of the products • 5) Processing and exportation of the data
The cells are cultured in whole medium in a T225 flask. For the experiments, the cells are subcultured in 200 μl of culture medium in transparent-bottomed black 96-well plates at a rate of 60 000 cells/well for a use on D+1 or 40 000 cells/well for a use on D+2.
Fluo-4AM is prepared at 20 mM and then divided into aliquots (50 μl) and stored at −20° C. sheltered from light. A solution of pluronic acid at 200 mg/ml in DMSO is also prepared (it keeps for one week at room temperature sheltered from light).
The cells are charged with the mixture of Fluo-4AM+pluronic acid (aliquots of 50 μl+50 μl of pluronic acid) diluted to 1/100 in the measuring buffer.
After washing the wells with 150 μl of measuring buffer (cf. appendix), the cells are then charged in the following manner: • distribution of 100 μl of measuring buffer into each well • addition of 10 μl of the Fluo-4AM+pluronic acid mixture diluted to 1/100.
The cells are incubated for 1 hour at 37° C. sheltered from light, in an incubator in the presence of 5% CO2.
The cells are then washed 3 times with 150 μl of measuring buffer to remove the excess probe. A volume of 150 μl of buffer is added to each well at the end of washing.
After incubating the plates for 20 minutes at room temperature sheltered from light, they are placed in the FlipR for the fluorescence measurement.
The basic level of incorporation of the Fluo-4 is checked for each plate (sd<10%) before the first injection.
After stabilizing the base signal, the GPR14 inhibitor compounds are injected via the FlipR in a volume of 50 μl using a dilution plate prepared with Biomek 2000 as measuring buffer.
The data are recorded continuously throughout the experiment.
For each plate, the base fluorescence before injection of the compounds is normalized via the “spatial uniformity correction” function of the FlipR. […] In each plate, a series of wells is treated with urotensin alone in the absence of inhibitor compound.
The percentage of inhibition for each concentration of product is calculated as described below: Inhibition(%)=100×(delta Uro II−delta product)/delta Uro II
On to `COC(=O)C1(NC(=O)c2ccc(-c3ncc(Cl)cc3Cl)c(-c3ccc(Cl)c(OCCCN(C)C)c3)n2)CCCCC1` [Compound 1, methyl 1-{[(3,5-dichloro-2′-{4-chloro-3-[3-(dimethylamino)propoxy]phenyl}-2,3′-bipyridin-6′-yl)carbonyl]amino}cyclohexanecarboxylate], for which the IC50 is 1.6 µM.

In the case of `COC(=O)C1(NC(=O)c2ccc(-c3ccc(O)cc3C)c(-c3ccc(Cl)c(OCCCN(C)C)c3)n2)CCCCC1` [Compound 2, methyl 1-({[6-{4-chloro-3-[3-(dimethylamino)propoxy]phenyl}-5-(4-hydroxy-2-methylphenyl)pyridin-2-yl]carbonyl}amino)cyclohexanecarboxylate], the midpoint of inhibition, the IC50, lay at 1.7 µM. The same measure, in the same setting: in the case of `COC(=O)C1(NC(=O)c2ccc(-c3ccccc3C)c(-c3ccc(Cl)c(OCCCN(C)C)c3)n2)CCCCC1` [Compound 4, methyl 1-({[6-{4-chloro-3-[3-(dimethylamino)propoxy]phenyl}-5-(2-methylphenyl)pyridin-2-yl]carbonyl}amino)cyclohexanecarboxylate] it was 0.63 µM. Same read-out and setting: in the case of `COC(=O)C1(NC(=O)c2ccc(-c3ncc(C)cc3Cl)c(-c3ccc(Cl)c(OCCCN(C)C)c3)n2)CCCCC1` [Compound 5, methyl 1-{[(3-chloro-2′-{4-chloro-3-[3-(dimethylamino)propoxy]phenyl}-5-methyl-2,3′-bipyridin-6′-yl)carbonyl]amino}cyclohexanecarboxylate] it was 0.54 µM; in that of `COC(=O)C1(NC(=O)c2ccc(-c3cc(C4CC4)ccc3C)c(-c3ccc(Cl)c(OCCCN(C)C)c3)n2)CCCCC1` [Compound 7, methyl 1-({[6-{4-chloro-3-[3-(dimethylamino)propoxy]phenyl}-5-(5-cyclopropyl-2-methylphenyl)pyridin-2-yl]carbonyl}amino)cyclohexanecarboxylate], 0.33 µM; in that of `CCCOc1ccc(Cl)c(-c2ccc(C(=O)NC3(C(=O)OC)CCCCC3)nc2-c2ccc(Cl)c(OCCCN(C)C)c2)c1` [Compound 9, methyl 1-({[6-{4-chloro-3-[3-(dimethylamino)propoxy]phenyl}-5-(2-chloro-5-propoxyphenyl)pyridin-2-yl]carbonyl}amino)cyclohexanecarboxylate], 1.4 µM. `COC(=O)C1(NC(=O)c2ccc(-c3cc4c(cc3C)OCO4)c(-c3ccc(Cl)c(OCCCN(C)C)c3)n2)CCCCC1` [Compound 11, methyl 1-({[6-{4-chloro-3-[3-(dimethylamino)propoxy]phenyl}-5-(6-methyl-1,3-benzodioxol-5-yl)pyridin-2-yl]carbonyl}amino)cyclohexanecarboxylate] had an IC50 of 0.566 µM. Same read-out and setting: under `COC(=O)C1(NC(=O)c2ccc(-c3ncc(C)cc3C)c(-c3ccc(Cl)c(OCCCN(C)C)c3)n2)CCCCC1` [Compound 13, methyl 1-{[(2′-{4-chloro-3-[3-(dimethylamino)propoxy]phenyl}-3,5-dimethyl-2,3′-bipyridin-6′-yl)carbonyl]amino}cyclohexanecarboxylate] stands 0.846 µM; under `COC(=O)C1(NC(=O)c2ccc(-n3nc(C)cc3C)c(-c3ccc(Cl)c(OCCCN(C)C)c3)n2)CCCCC1` [Compound 18, methyl 1-({[6-{4-chloro-3-[3-(dimethylamino)propoxy]phenyl}-5-(3,5-dimethyl-1H-pyrazol-1-yl)pyridin-2-yl]carbonyl}amino)cyclohexanecarboxylate], 1.08 µM.

`COC(=O)C1(NC(=O)c2cnc(-c3ccc(C)cc3C)c(-c3ccc(Cl)c(OCCCN(C)C)c3)n2)CCCCC1` [Compound 20, methyl 1-({[6-{4-chloro-3-[3-(dimethylamino)propoxy]phenyl}-5-(2,4-dimethylphenyl)pyrazin-2-yl]carbonyl}amino)cyclohexanecarboxylate] registered an IC50 of 0.116 µM. This IC50 is about 9.3-fold lower than that of the compound before.

For `CCOc1ccc(Cl)c(-c2ncc(C(=O)N[C@@H](CC(=O)OC)C(C)(C)C)nc2-c2ccc(Cl)c(OCCCN(C)C)c2)c1` [Compound 24, methyl(3S)-3-({[6-{4-chloro-3-[3-(dimethylamino)propoxy]phenyl}-5-(2-chloro-5-ethoxyphenyl)pyrazin-2-yl]carbonyl}amino)-4,4-dimethylpentanoate], the IC50 came out at 0.102 µM. Still for that read-out and setting: under `COC(=O)C1(NC(=O)c2ccc(-c3ccccc3Cl)c(-c3ccc(Cl)c(OCCCN(C)C)c3)n2)C2CC3CC(C2)CC1C3` (stereo not shown) [Compound 26, methyl 2-({[6-{4-chloro-3-[3-(dimethylamino)propoxy]phenyl}-5-(2-chlorophenyl)pyridin-2-yl]carbonyl}amino)adamantane-2-carboxylate] stands 0.17 µM. Take `CCOC(=O)C[C@H](NC(=O)c1ccc(-c2ccccc2C)c(-c2ccc(Cl)c(OCCCN(C)C)c2)n1)C(C)(C)C` [Compound 29, ethyl(3S)-3-({[6-{4-chloro-3-[3-(dimethylamino)propoxy]phenyl}-5-(2-methylphenyl)pyridin-2-yl]carbonyl}amino)-4,4-dimethylpentanoate]: the midpoint of inhibition, the IC50, lay at 0.253 µM. On the same count and under the same terms, under `CNC(=O)C[C@H](NC(=O)c1ccc(-c2ccccc2C)c(-c2ccc(Cl)c(OCCCN(C)C)c2)n1)C(C)(C)C` [Compound 33, 6-{4-chloro-3-[3-(dimethylamino)propoxy]phenyl}-N-{(1S)-2,2-dimethyl-1-[2-(methylamino)-2-oxoethyl]propyl}-5-(2-methylphenyl)pyridine-2-carboxamide] stands 0.45 µM; under `COC(=O)[C@]1(NC(=O)c2ccc(-c3ccccc3C)c(-c3ccc(Cl)c(OCCCN(C)C)c3)n2)CC[C@@H](O)CC1` [Compound 42, methyl cis-1-({[6-{4-chloro-3-[3-(dimethylamino)propoxy]phenyl}-5-(2-methylphenyl)pyridin-2-yl]carbonyl}amino)-4-hydroxycyclohexanecarboxylate], 0.095 µM. In turn, `COC(=O)[C@]1(NC(=O)c2ccc(-c3ncc(C)cc3Cl)c(-c3ccc(Cl)c(OCCCN(C)C)c3)n2)CC[C@@H](O)CC1` [Compound 44, methyl cis-1-{[(3-chloro-2′-{4-chloro-3-[3-(dimethylamino)propoxy]phenyl}-5-methyl-2,3′-bipyridin-6′-yl)carbonyl]amino}-4-hydroxycyclohexanecarboxylate] had an IC50 of 0.66 µM. This IC50 is about 6.9-fold higher than that of the compound before.
